{"source": "patent US20240342066A1", "about": "“HIGH POTENCY EMULSIONS” (Vertosa Inc., priority 0001, published 2024)", "tested_on": "skin", "assay": "Patch test for skin irritation and allergy", "assay_type": "in vivo, human", "details": "positive control", "procedure": "These three emulsions were first evaluated for skin irritation and allergy studies using a patch test at a third-party skin care evaluation lab. The three pure emulsion formulas were tested at 20 mg/mL concentration on the patch on 55 subjects.\nThe patches were prepared with each of the 3 different emulsion types separately. Each emulsion was prepared at 20 mg/g. The test was focused on the effects of the emulsion without the influence of any other skin care ingredients. The goal was to stress test if pure emulsion can cause any skin irritation. […]\nBelow is the procedure of the patch test: • Step 1: Subjects were requested to bathe or wash as usual before arrival at the facility. • Step 2: Patches containing the test material were then affixed directly to the skin of the intrascapular regions of the back, to the right or left of the midline, and subjects were dismissed with instructions not to wet or expose the test area to direct sunlight. • Step 3: Patches remained in place for 48 hours after the first application. […] Test sites were evaluated by trained laboratory personnel 48 and 96 hours after application. • Step 7: In the event of an adverse reaction, the area of erythema and edema were measured. […]", "data": [{"smiles": "CCCCCCCCCCCCOS(=O)(=O)[O-].[Na+]", "note": "[2.0% Sodium Lauryl Sulfate Solution, Sodium Lauryl Sulfate]", "values": [{"measurement": "subjects with a Grade 1 reaction", "value": 8, "unit": "subjects"}]}]}
